Data: PubChem BioAssay (NCI)
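All cell lines were grown in 96-well plates and treated with compound for 48 hours. Definition used: TGI = concentration required for complete inhibition of growth.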

Assays:
Assay in all cases: NCI anticancer screen, dose series, 48 h
EKVX NSCLC = system: EKVX NSCLC
HCC-2998 colon = system: HCC-2998 colon
HL-60(TB) leukemia = system: HL-60(TB) leukemia
HOP-92 NSCLC = system: HOP-92 NSCLC
IGROV1 ovarian = system: IGROV1 ovarian
K-562 leukemia = system: K-562 leukemia
KM12 colon = system: KM12 colon
LOX IMVI melanoma = system: LOX IMVI melanoma
MALME-3M melanoma = system: MALME-3M melanoma
MCF7 breast = system: MCF7 breast
NCI-H226 lung = system: NCI-H226 lung
NCI-H460 lung = system: NCI-H460 lung
OVCAR-3 ovarian = system: OVCAR-3 ovarian
SNB-75 CNS = system: SNB-75 CNS
SR leukemia = system: SR leukemia
SW-620 colon = system: SW-620 colon
T-47D breast = system: T-47D breast
UACC-257 melanoma = system: UACC-257 melanoma
TK-10 renal = system: TK-10 renal

| SMILES | TGI (EKVX NSCLC) [µM] | TGI (HCC-2998 colon) [µM] | TGI (HL-60(TB) leukemia) [µM] | TGI (HOP-92 NSCLC) [µM] | TGI (IGROV1 ovarian) [µM] | TGI (K-562 leukemia) [µM] | TGI (KM12 colon) [µM] | TGI (LOX IMVI melanoma) [µM] | TGI (MALME-3M melanoma) [µM] | TGI (MCF7 breast) [µM] | TGI (NCI-H226 lung) [µM] | TGI (NCI-H460 lung) [µM] | TGI (OVCAR-3 ovarian) [µM] | TGI (SNB-75 CNS) [µM] | TGI (SR leukemia) [µM] | TGI (SW-620 colon) [µM] | TGI (T-47D breast) [µM] | TGI (UACC-257 melanoma) [µM] | TGI (TK-10 renal) [µM] |
| --- | --- | --- | --- | --- | --- | --- | --- | --- | --- | --- | --- | --- | --- | --- | --- | --- | --- | --- | --- |
| O=CC(O)C(O)C1OC(=O)c2cc(O)c(O)c(O)c2C2=C(O)C(O)=C3OC(=O)c4c(c(O)c(O)c5c4C3C2C(=O)O5)-c2c(cc(O)c(O)c2O)C(=O)OCC1O (stereo unspecified) | > 100 | > 100 | 67.7 | 98.2 | > 100 | 56.7 | 31.2 | 31.9 | > 100 | 39.7 | > 100 | > 100 | 57 | > 100 | 63 | 36.3 | > 100 | > 100 |  |
| CSc1ncc2c(C#N)c3[nH]c4ccccc4n3c(=O)c2n1 | > 100 | 42.7 | 25.1 | > 100 | > 100 | 46 | > 100 | > 100 |  | > 100 | > 100 | 87.8 | 45.2 | > 100 | 34.5 | > 100 | > 100 | > 100 | > 100 |
| O=C(Cn1c(C(=O)/C=C/c2ccc(Cl)cc2)nc2ccccc21)c1ccc(Cl)cc1 | 64.5 | 32.4 | 29.1 | > 100 | 71.7 | > 100 | 27.6 | 36.5 | 52.6 | 30.9 | 64.4 | 28.9 | 22.9 |  | 22.9 | > 100 | > 100 | 68.2 | 98.5 |
| C=CCSC1=N/C(=C\c2ccc(OC)cc2)C(=O)N1CC=C | 59.2 | 79.7 | 34.8 | > 100 | > 100 | > 100 | 71.7 | > 100 | 87.7 | > 100 |  | > 100 | > 100 |  | 43.7 | > 100 | > 100 | 58.4 | > 100 |
| CCOC(=O)[C@@H]1ON2O[C@@H](OC3CCCCC3c3ccccc3)C[C@H]3OC(=O)[C@@H]1C32 (stereo partly specified) | > 100 | > 100 |  | > 100 | > 100 | > 100 | > 100 | > 100 |  | > 100 | > 100 | > 100 | > 100 | > 100 | > 100 | > 100 | > 100 | > 100 | > 100 |
| COc1ccc(C[C@@H](C(=O)O[C@H](C)[C@H](NC(=O)[C@@H](CC(C)C)N(C)C(=O)C2CCCN2C(=O)[C@H](C)O)C(=O)N2CCCCNC(=O)[C@@H](C)C(=O)[C@H](C(C)C)OC(=O)C[C@H](O)[C@H]2CC(C)C)N(C)C(C)=O)cc1 (stereo partly specified) | 37.1 | 23 | 25.2 | > 50 | > 50 | 39.7 | 31.6 |  | 49.1 | > 50 | 49.5 | 45.2 | > 50 | > 50 | 25 | 28.4 | > 50 | > 50 | > 50 |
| COC(=O)[C@]12C3=C(O)C(=O)C[C@H]1OC[C@H]2C=CC3 | > 100 | > 100 |  | > 100 | > 100 | > 100 | > 100 | > 100 | > 100 | > 100 |  | > 100 | > 100 | > 100 | > 100 | 63.4 | > 100 | > 100 | > 100 |
| CCOC(=O)N/N=C(\CC)NO | > 100 | > 100 | > 100 | > 100 | > 100 | > 100 | > 100 | > 100 | > 100 | > 100 | > 100 | > 100 | > 100 |  | > 100 | > 100 | > 100 | > 100 | > 100 |
| Cc1ccc2c(c1)C=CC1(O2)N(c2ccccc2)C(=S)OC1(C)C (stereo unspecified) | > 100 | > 100 | 31.2 | > 100 | > 100 | > 100 | > 100 | > 100 |  | > 100 | > 100 | > 100 | > 100 | > 100 | 78.9 | > 100 | 20.7 | > 100 | > 100 |
| CC(=O)N1C(=O)c2cc3ccccc3cc21 | > 100 | > 100 | > 100 | > 100 | > 100 | > 100 |  | > 100 |  | > 100 | > 100 | > 100 |  | > 100 | > 100 | > 100 | > 100 |  | > 100 |
| COC(=O)CSc1nc2[nH]c(SC)c(C(N)=O)c2c(=O)n1-c1ccccc1 | > 10 | > 10 | > 10 | > 10 | > 10 | > 10 | > 10 | > 10 | > 10 | > 10 |  |  |  | > 10 | > 10 | > 10 | > 10 | > 10 | > 10 |
| CNn1c(-c2ccc(C)cc2)n[nH]c1=O | > 100 | > 100 |  | > 100 | > 100 | > 100 | > 100 | > 100 | > 100 | > 100 | > 100 | > 100 | > 100 |  | > 100 | > 100 | > 100 | > 100 | > 100 |
| C[C@H](CCC(=O)NCCS(=O)(=O)O)[C@H]1CC[C@H]2[C@@H]3[C@H](O)C[C@@H]4C[C@H](O)CC[C@]4(C)[C@H]3CC[C@]12C | > 100 | > 100 | > 100 | > 100 | > 100 | > 100 | > 100 | > 100 | > 100 | > 100 | > 100 | > 100 | > 100 |  | > 100 | > 100 | > 100 | > 100 | > 100 |
| COc1ccc(C2Oc3c(cccc3-c3c(-c4ccc(O)cc4)oc4cc(O)cc(O)c4c3=O)C(=O)C2O)cc1O (stereo unspecified) | > 100 | > 100 | > 100 | > 100 | > 100 | > 100 |  |  | > 100 | > 100 | > 100 | > 100 | > 100 | > 100 | > 100 | > 100 | > 100 | > 100 | > 100 |
| O=C(O/N=c1/ccc(=O)/c(=N\OC(=O)c2ccccc2)c1=O)c1ccccc1 | > 100 | > 100 | 52.1 | > 100 | > 100 | > 100 | > 100 | > 100 |  | > 100 | > 100 | > 100 | > 100 | > 100 | > 100 | > 100 | > 100 |  | > 100 |
| CC(Cc1ccccc1)N(C)Cc1nc(C2CCC([N+](=O)[O-])O2)no1 (stereo unspecified) | 94.4 | 14.3 |  | 51.2 | 25.5 |  | 21 | 11.6 | 25.6 | 15.5 | 32.4 |  |  | 23.1 | > 100 | 14.9 | 66.1 | 21.2 | 28.4 |
| CCOC(=O)c1csc(C(CSCc2ccc(OC)cc2)N2C(=O)c3ccccc3C2=O)n1 (stereo unspecified) | > 100 | > 100 | > 100 | > 100 | > 100 | > 100 | > 100 | > 100 | > 100 | > 100 | > 100 | > 100 | > 100 |  | > 100 | > 100 | > 100 | > 100 | > 100 |
| C[C@@H](NC(=O)Cn1c(Cl)nc2ccccc21)c1ccccc1 | > 100 | > 100 | > 100 | > 100 |  | > 100 | > 100 | > 100 | > 100 | > 100 | > 100 | > 100 | > 100 | > 100 | > 100 | > 100 | > 100 | > 100 | > 100 |
| O=c1oc2ccccc2c(O)c1C(c1cccc(C(c2c(O)c3ccccc3oc2=O)c2c(O)c3ccccc3oc2=O)c1)c1c(O)c2ccccc2oc1=O | > 100 | 46.2 | 45.8 | > 100 | > 100 | 53.5 | > 100 | 60.2 |  | 61.3 | > 100 | > 100 | > 100 | 41.6 | 58.8 | > 100 | > 100 | > 100 | > 100 |
| COc1ccc2nc3n(c2c1)C(c1c(F)cccc1F)SC3 (stereo unspecified) | 55 | > 100 | 78.7 | > 100 | > 100 | > 100 | > 100 | > 100 |  | > 100 | 66.2 | > 100 | > 100 | > 100 | > 100 | > 100 | > 100 | > 100 | > 100 |
| CC1(C)OC[C@H](COCOP2(=O)Oc3ccc4ccccc4c3-c3c(ccc4ccccc34)O2)O1 |  | 31.3 | 48.5 | 28.5 | 72.2 | 80.6 | 29.4 |  | 37.2 | 12.2 | 37.3 | 33.3 | 29.6 |  | 45.6 | 29.7 | 36.2 |  | 35.6 |
| CC[C@@H]([C@H](O)c1ccccc1Cl)[N+](=O)[O-] | > 100 | > 100 | > 100 | > 100 | > 100 |  | > 100 | > 100 |  | > 100 | > 100 | > 100 | > 100 | > 100 | > 100 | > 100 | > 100 | > 100 | > 100 |
| O=c1[nH]nc(-c2ccccc2)n1-c1cccc([N+](=O)[O-])c1 | > 100 | > 100 |  | > 100 | > 100 | > 100 | > 100 | > 100 | > 100 | > 100 | > 100 | > 100 | > 100 | > 100 | > 100 | > 100 | > 100 | > 100 | > 100 |
| COc1ccc(/C=C2\Sc3nnc(-c4ccccc4)n3N=C2c2cc(F)c(Cl)cc2Cl)cc1OC | > 100 | 47.2 | > 100 | > 100 | > 100 | > 100 | > 100 | > 100 |  | > 100 | > 100 | > 100 | > 100 |  | > 100 | 92 | > 100 | > 100 | > 100 |
| CCCCCCc1cc2cc(-c3cn4c(n3)sc3ccccc34)c(=O)oc2cc1O | > 100 | > 100 | > 100 | > 100 | > 100 | > 100 | > 100 | > 100 |  | > 100 | > 100 | > 100 | > 100 | > 100 | > 100 | > 100 | > 100 | > 100 | > 100 |
